Data: US20250134861A1, “COMPOSITIONS COMPRISING 5-METHOXY-N,N-DIMETHYLTRYPTAMINE (5-MEO-DMT) FOR USE IN TREATING MENTAL DISORDERS” (GH RESEARCH IRELAND LIMITED, priority 2019, published 2025)

How the values were obtained:
[1] = oral; cited from earlier work
[2] = test system: patients in a treatment program of alcoholism; settings: LSD together with psychotherapy vs psychotherapy alone; cited from earlier work
[3] = test system: patients with anxiety associated with life-threatening diseases; settings: 12 patients; two months follow-up; cited from earlier work
[4] = test system: patients with personality trait disturbance or anxiety; settings: LSD as an aid to psychotherapy; cited from earlier work
[5] = test system: patients suffering from terminal state of cancer; settings: LSD treatment; cited from earlier work
[6] = test system: patients with alcohol dependence; settings: therapy with LSD; cited from earlier work
[7] = Clinical trial of inhaled 5-MeO-DMT in healthy volunteers: 5-MeO-DMT and bufotenine plasma levels; type: in vivo, human; settings: all other samples (1 hour and 3 hours) after inhaled 5-MeO-DMT
Procedure: The trial consisted of two parts: Part A, where single doses of 5-MeO-DMT dosage amounts of 2 mg, 6 mg, 12 mg and 18 mg were administered; and Part B, where an initial 5-MeO-DMT dosage amount of 6 mg was administered, and then, unless the participant had already experienced a peak psychedelic experience based on the PPEQ or the supervising physician had decided that further dose increases were inappropriate based on observed side effects, further subsequent dosage amounts of 12 mg and 18 mg were administered with about 3 hours in between each administration. […] Pharmacokinetic analysis of 5-MeO-DMT and bufotenine plasma levels was performed at 1 hour and 3 hours after drug administration in Part A, and at 3 hours after drug administration in Part B.

[8] = target: 5-HT2A receptor (Homo sapiens, UniProt P28223); settings: compared with 5-MeO-DMT; cited from earlier work
[9] = test system: patients with treatment-resistant depression; settings: in vivo; cited from earlier work

Sequence of 5-HT2A receptor (P28223 whole entry): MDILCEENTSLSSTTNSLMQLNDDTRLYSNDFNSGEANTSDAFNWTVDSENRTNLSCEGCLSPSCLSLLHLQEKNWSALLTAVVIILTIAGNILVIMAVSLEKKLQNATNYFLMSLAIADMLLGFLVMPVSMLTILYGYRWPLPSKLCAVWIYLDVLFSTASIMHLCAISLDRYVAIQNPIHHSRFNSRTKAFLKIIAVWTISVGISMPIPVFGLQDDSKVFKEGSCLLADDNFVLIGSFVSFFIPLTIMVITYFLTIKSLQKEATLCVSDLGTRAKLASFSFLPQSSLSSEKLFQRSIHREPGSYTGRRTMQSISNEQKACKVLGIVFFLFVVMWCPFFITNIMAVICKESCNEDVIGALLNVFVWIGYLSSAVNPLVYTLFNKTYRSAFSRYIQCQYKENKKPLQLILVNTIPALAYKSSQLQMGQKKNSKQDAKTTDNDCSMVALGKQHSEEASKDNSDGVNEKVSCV

With CCN(CC)C(=O)[C@@H]1C=C2c3cccc4[nH]cc(c34)C[C@H]2N(C)C1 [LSD, lysergic acid diethylamide] as the compound, how does the “Duration of acute psychedelic effects” value [1] read?
Its value is “several hours”.

And the “Rates of abstinence or improvement” value [2]?
Its value is “higher rates of abstinence or improvement”.

And the Anxiety measures [3]?
Its Anxiety measures is “significant effects”.

And the “Patients with outcome of "much improved" or "improved"” value [4]?
Its value is “over 90%”.

And the “Fraction of patients who improved in varying degrees” value [5]?
The value was “about two-thirds”.

What about the “Patients changed (stop drinking or are much improved)” value [6] of the same compound?
Its value is 50%.

Which “Bufotenine (5-MeO-DMT metabolite) plasma levels” value [7] does the source give for CN(C)CCc1c[nH]c2ccc(O)cc12 [bufotenine] here?
The value was “undetectable”.

What about the “Affinity for the 5-HT2A receptor” value [8] of the same compound?
Its value is “much higher affinity than 5-MeO-DMT itself”.

For CN(C)CCc1c[nH]c2cccc(OP(=O)(O)O)c12 [psilocybin], which “Frequently reported side effects” value [9] is on record?
Its value is “anxiety, headache and nausea”.
